What was measured:
IL-6 secretion by FLS = experiment: IL-1β-induced IL-6 secretion by FLS (ELISA); format: cell-based; conditions: Homo sapiens; 30 min compound, then 5 ng/ml IL-1β, 24 h
Excerpt: (§1) This study was approved by the Institutional Review Board of University of California, San Diego School of Medicine (La Jolla, CA, USA). Informed consent was obtained from all participants. Anonymous synovial tissue samples were obtained from six patients with RA at the time of total joint replacement (5 females, 1 male; age range, 44–72 years), as previously described ([Alvaro-Gracia et al., 1990]). The diagnosis of RA conformed to American College of Rheumatology 1987 revised criteria ([Arnett et al., 1988]). The synovium was minced and incubated with collagenase type VIII (0.5 mg/ml) (Sigma-Aldrich) in serum-free RPMI-1640 (Life Technologies, Grand Island, NY, USA) for 2 h at 37°C, filtered, extensively washed, and cultured in DMEM (Life Technologies) supplemented with 10% FBS (Gemini Bio Products, Calabasas, CA, USA), penicillin, streptomycin, gentamicin, and glutamine in a humidified 5% CO2 atmosphere. […]
(§2) FLS, HUVEC, SW982, and THP-1 cells were plated in 96 well plates (10^4 to 10^5 cells/well) for 48 h before treatment. […] The levels of MMP-1 and MMP-3 were determined in culture supernatants using commercially available ELISA kits according to the manufacturer’s instructions (R&D System, Minneapolis, MN, USA). IL-6 levels were also determined in the supernatants using a human IL-6 ELISA kit (BD Biosciences, San Jose, CA, USA).

[1] = system: MMP-1 secretion by SW982 cells; experiment: IL-1β-induced MMP-1 secretion by SW982 cells (ELISA); format: cell-based; conditions: Homo sapiens, 30 min compound, then 5 ng/ml IL-1β, 24 h, read-out: SW-982 MMP-1 IC50
Method: (§3) FLS, HUVEC, SW982, and THP-1 cells were plated in 96 well plates (10^4 to 10^5 cells/well) for 48 h before treatment. At 2 days post-confluency, the cells were serum-starved and washed twice (with the exception of THP-1 cell, which were not washed) with FBS-free medium prior to the addition of test compounds. The cells were incubated in the presence or absence of test compounds or DMSO (vehicle control) for 30 min at 37°C in a 5% CO2 atmosphere, IL-1β (5 ng/ml) was added, and the cells were incubated for an additional 24 h. Culture supernatants were collected and stored at –80°C. The levels of MMP-1 and MMP-3 were determined in culture supernatants using commercially available ELISA kits according to the manufacturer’s instructions (R&D System, Minneapolis, MN, USA). IL-6 levels were also determined in the supernatants using a human IL-6 ELISA kit (BD Biosciences, San Jose, CA, USA).

[2] = system: CII-specific Abs in CIA mice; experiment: Anti-CII antibody ELISA in serum of CIA mice; format: in vivo; conditions: 30 mg/kg i.p. daily, day 8 to 42, vs saline
Method: Serum samples from mice with CIA were collected on day 44 after CII injection. Samples of the diluted sera were added to microtiter plates (Greiner Bio-One, Monroe, NC, USA) coated with 2 μg/ml ELISA grade mouse CII (Chondrex). Horseradish peroxidase-conjugated goat […] total IgG, IgG1, IgG2a, IgG2b, and IgG3 (Southern Biotechnology Associates, Birmingham, AL, USA) were used for detection. The samples were developed with 2,2’-azino-bis(3-ethylbenzothiazoline-6-sulphonic acid (Moss Inc., Pasadena, MD, USA), and absorbance was monitored at 415 nm using a SpectraMax Plus microplate reader. Endpoint titer represents reciprocal log 2 for the serum dilution with absorbance ≥ 0.1 above negative control.

FLS = experiment: Cytotoxicity assay (CellTiter-Glo), FLS; format: cell-based, human; conditions: during the 90-min period of the c-Jun assay
Excerpt: (§4) This study was approved by the Institutional Review Board of University of California, San Diego School of Medicine (La Jolla, CA, USA). Informed consent was obtained from all participants. Anonymous synovial tissue samples were obtained from six patients with RA at the time of total joint replacement (5 females, 1 male; age range, 44–72 years), as previously described ([Alvaro-Gracia et al., 1990]). The diagnosis of RA conformed to American College of Rheumatology 1987 revised criteria ([Arnett et al., 1988]). The synovium was minced and incubated with collagenase type VIII (0.5 mg/ml) (Sigma-Aldrich) in serum-free RPMI-1640 (Life Technologies, Grand Island, NY, USA) for 2 h at 37°C, filtered, extensively washed, and cultured in DMEM (Life Technologies) supplemented with 10% FBS (Gemini Bio Products, Calabasas, CA, USA), penicillin, streptomycin, gentamicin, and glutamine in a humidified 5% CO2 atmosphere. Cells were allowed to adhere overnight, nonadherent cells were removed, and adherent fibroblast-like synoviocytes (FLS) were split at 1:3 when 70%–80% confluent. FLS were used from passages 3 through 9, during which time they are a homogeneous population of cells (<1% CD11b positive, <1% phagocytic, and <1% FcγRII and FcγRIII receptor positive).
(§5) Cytotoxicity was analyzed using a CellTiter-Glo Luminescent Cell Viability Assay Kit (Promega), according to the manufacturer’s protocol. […] Following treatment, substrate was added to the cells, and the samples were analyzed with a Fluoroscan Ascent FL microplate reader.

[3] = Cytotoxicity assay (CellTiter-Glo), FLS; format: cell-based, human; conditions: both sexes, human; concentrations up to 50 µM; read-out: Cytotoxic effect FLS IC50
Excerpt: as §4, §5

[4] = Cytotoxicity assay (CellTiter-Glo), THP-1; format: cell-based; conditions: human, THP-1 cells; concentrations up to 50 µM; read-out: Cytotoxic effect THP-1 IC50
Method: (§6) Cytotoxicity was analyzed using a CellTiter-Glo Luminescent Cell Viability Assay Kit (Promega), according to the manufacturer’s protocol. Briefly, cells were cultured at a density of 10^4 to 10^5 cells/well with different concentrations of test compounds (final concentration of DMSO was 1%) for the indicated periods of time (2, 12, or 24 h) at 37°C and 5% CO2. Following treatment, substrate was added to the cells, and the samples were analyzed with a Fluoroscan Ascent FL microplate reader.

[5] = Cytotoxicity assay (CellTiter-Glo), SW982; format: cell-based; conditions: human, SW982 cells; concentrations up to 50 µM; read-out: Cytotoxic effect SW982 IC50
Method: as §6

MMP-3 secretion by FLS = experiment: IL-1β-induced MMP-3 secretion by FLS (ELISA); format: cell-based; conditions: Homo sapiens; 30 min compound, then 5 ng/ml IL-1β, 24 h
Excerpt: as §1, §2

MMP-1 secretion by HUVEC = experiment: IL-1β-induced MMP-1 secretion by HUVEC (ELISA); format: cell-based; conditions: Homo sapiens, 30 min compound, then 5 ng/ml IL-1β, 24 h
Method: as §3

[6] = system: c-Jun phosphorylation in FLS; experiment: c-Jun phosphorylation in IL-1β-stimulated FLS (Western blot); format: cell-based, human; conditions: 1 h pretreatment, 2 ng/ml IL-1β 15 min
Method: Cultured FLS (passage 4) were plated at 2 × 10^5 cells in six-well plates overnight in DMEM containing 10% FBS and synchronized for 24 h in DMEM/0.1% FBS. […] The cells were then washed once with ice-cold PBS and lysed with modified radioimmunoprecipitation assay buffer [50 mM HEPES, pH 7.4, 150 mM NaCl, 1% Triton X-100, 10% glycerol, 2.5 mM MgCl2, 1.0 mM EDTA, 20 mM β-glycerophosphate, 10 mM NaF, 1 mM Na3VO4, and Protease inhibitor cocktail (Roche, Indianapolis, IN)]. Protein concentration of the lysates was measured using a MicroBCA Assay kit (Pierce, Rockford, IL), and 40 μg lysate was subjected to 10% SDS-PAGE and Western blot analysis. Anti–phospho-c-Jun (Ser63) was purchased from Cell Signaling Technology (Danvers, MA), and anti-mouse GAPDH was from Santa Cruz Biotechnology (Santa Cruz, CA).

JNK2 = system: JNK2; parameters: method as in Schepetkin et al., 2019; conditions: kinase profiling; ref Schepetkin et al., 2019; cited from earlier work
[7] = system: MMP-3 secretion by SW982 cells; experiment: IL-1β-induced MMP-3 secretion by SW982 cells (ELISA); format: cell-based; conditions: Homo sapiens, 30 min compound, then 5 ng/ml IL-1β, 24 h
Method: as §3

Row | SMILES | IC50 (IL-6 secretion by FLS) [µM] | IC50 [1] [µM] | titers of CII-specific IgG, IgG1, IgG2a, IgG2b, IgG3 [2] | FLS viability (FLS) | IC50 [3] [µM] | IC50 [4] [µM] | IC50 [5] [µM] | IC50 (MMP-3 secretion by FLS) [µM] | IC50 (MMP-1 secretion by HUVEC) [µM] | c-Jun phosphorylation [6] | binding affinity for JNK2 (JNK2) | IC50 [7] [µM]
1 | O=c1c2ccccc2nc2n1-c1ccccc1/C2=N/O [TRYP-Ox, tryptanthrin-6-oxime] | 7.4 ± 1.2 | 2.6 ± 0.8 | significantly lower | neither TRYP nor TRYP-Ox affected FLS viability | > 50 | > 50 | > 50 | 3.8 ± 0.4 | 2.9 ± 0.1 | inhibited c-Jun phosphorylation | high binding affinity | 1.4 ± 0.1
2 | O=C1c2ccccc2-n2c1nc1ccccc1c2=O [TRYP, indolo[2,1-b]quinazolin-6,12-dione] | 14.8 ± 1.8 | 7.8 ± 2 | significantly lower | neither TRYP nor TRYP-Ox affected FLS viability | 16.7 ± 1.6 | 18.2 ± 2.3 | 19.1 ± 4.9 | 12.7 ± 4.6 | 3.4 ± 1.1 | had no effect | no binding affinity | 8.7 ± 0.3
